Each block holds one compound with its values, some of them ahead of it.
Assays:
Format in all cases: physicochemical
[1] = Amount of cyclization of the precursor under alkaline hydrolysis conditions (HPLC); details: 20° C., first step of cyclization only, % relative to total amount of starting compound
Method: Buffer solutions were prepared by dissolving two phosphate or borate buffer tablets (origin: Fluka, Switzerland) in a mixture of 160 ml water and 40 ml acetonitrile, respectively. To determine the exact pH value of the reaction solution, 10 ml of the buffer solutions were diluted with 2 ml of acetonitrile and the pH values measured (on a Mettler Toledo MP220 apparatus with an InLab 410 Ag/AgCl glass electrode) to be 7.62 (phosphate buffer) and 10.47 (borate buffer).
0.2 ml of a solution of 35 to 45 mg of the precursors in 25 ml of acetonitrile were added to 1.0 ml of a buffer solution at 20° C. The mixture was immediately injected in a HPLC apparatus (t=0), eluted at 1 ml/min on a reversed phase column with a mixture of water/acetonitrile containing 0.1% of TFA. Then the decrease of the amount of precursor and the simultaneous formation of the cyclized products was monitored at different time intervals at λ=254 and 280 nm. Chromatograms were recorded on a Macherey-Nagel, Nucleosil® 100-5 C18 column (250×4 mm i.d.) using a water/acetonitrile gradient (70:30 to 20:80 during 20 min) or on a Merck Chromolith™ SpeedROD RP-C18e column (50×4.6 mm i.d.) using a water/acetonitrile gradient (70:30 to 40:60 during 3 min).

[2] = Measure of fragrance release (hydrolysis) by UV spectroscopy; details: phosphate buffer, 20° C., 260-360 nm
Method: 2 ml of a precursor solution (35-55 mg in 25 ml of acetonitrile, at 20° C.) were added, at t=0, to 10 ml of a phosphate buffer solution (prepared as described in Example 14).
Hydrolysis was followed by recording the absorption spectra of the reaction mixture at constant time intervals in the range of 260-360 nm with a scanning rate of 960 nm/min until completion of the hydrolysis.

[3] = Amount of perfumery alcohols released by alkaline hydrolysis (HPLC); details: % relative to total amount of starting compound
Method: […] To determine the exact pH value of the reaction solution, 10 ml of the buffer solutions were diluted with 2 ml of acetonitrile and the pH values measured (on a Mettler Toledo […]).
About 25 mg of the precursors were placed in 1 ml of a buffer solution, 0.2 ml of acetonitrile was added and the supernatant solution was immediately injected in a […] HPLC apparatus (t=0), eluted at 3 ml/min on a reversed phase column with a mixture of water/acetonitrile containing 0.1% of TFA. The amount of the released alcohol was monitored by HPLC analysis at different time intervals at λ=214 or 254 nm. An external calibration curve for the corresponding alcohol in acetonitrile has been obtained from 4-8 dilutions. Chromatograms were recorded on a Merck Chromolith™ Performance RP-C18e column (100×4.6 mm i.d.) using a water/acetonitrile gradient (100:0 for 0.2 min then to 0:100 during 10 min or 80:20 to 20:80 during 10 min).

Compound: CCCC(Cc1ccccc1)OC(=O)c1ccccc1C(=O)NCCCN(C)CCCNC(=O)c1ccccc1C(=O)OC(CCC)Cc1ccccc1 (racemic) [Example 2b, (±)-bis(1-benzylbutyl)2,2′-(6-methyl-1,11-dioxo-2,6,10-triazaundecane-1,11-diyl)dibenzoate]
Amount of cyclized precursor ([1]; pH 7.62, 2.1 h): 98%

Compound: CC(C)=CCC/C(C)=C/COC(=O)/C=C\C(=O)NCCNC(=O)/C=C\C(=O)OC/C=C(\C)CCC=C(C)C [Example 1, (6E,11Z,19Z,24E)-2,6,25,29-tetramethyl-9,22-dioxa-14,17-diaza-2,6,11,19,24,28-triaconta-hexaene-10,13,18,21-tetrone]
Amount of cyclized precursor ([1]; pH 7.62, 4.7 h): 97%

Compound: CC(C)(Cc1ccccc1)OC(=O)c1ccccc1C(=O)NCCCN(CCCCN(CCCNC(=O)c1ccccc1C(=O)OC(C)(C)Cc1ccccc1)CCCNC(=O)c1ccccc1C(=O)OC(C)(C)Cc1ccccc1)CCCNC(=O)c1ccccc1C(=O)OC(C)(C)Cc1ccccc1 [Example 6b, Dendrimer 4-cascade: 1,4-diaminobutane[4-N,N,N′,N′]:N-(2-[(1,1-dimethyl-2-phenylethoxy)carbonyl]benzoyl)propylamine]
Amount of cyclized precursor ([1]; pH 7.62, 24.6 h): 80% | Hydrolysis followed by UV absorption spectra [2]: verified

Compound: CC(C)(Cc1ccccc1)OC(=O)c1ccccc1C(=O)NCCCN(CCCNC(=O)c1ccccc1C(=O)OC(C)(C)Cc1ccccc1)CCCN(CCCCN(CCCN(CCCNC(=O)c1ccccc1C(=O)OC(C)(C)Cc1ccccc1)CCCNC(=O)c1ccccc1C(=O)OC(C)(C)Cc1ccccc1)CCCN(CCCNC(=O)c1ccccc1C(=O)OC(C)(C)Cc1ccccc1)CCCNC(=O)c1ccccc1C(=O)OC(C)(C)Cc1ccccc1)CCCN(CCCNC(=O)c1ccccc1C(=O)OC(C)(C)Cc1ccccc1)CCCNC(=O)c1ccccc1C(=O)OC(C)(C)Cc1ccccc1 [Example 7]
Amount of released alcohol ([3]; pH 10.47, 2 d): 29%

Compound: dendrimer 16-cascade: 1,4-diaminobutane[4-N,N,N′,N′:(1-azabutylidene)^2:N-(2-[(1,1-dimethyl-2-phenylethoxy)carbonyl]benzoyl)propylamine [Example 8]
Amount of released alcohol ([3]; pH 10.98, 4 d, phosphate-bicarbonate buffer in water/acetonitrile 16:9): 69%

Other lines, results leading:

Amount of cyclized precursor ([1]; pH 7.62, 9.4 h): 72% | Hydrolysis followed by UV absorption spectra [2]: verified
Compound: C=CC(C)(CCC=C(C)C)OC(=O)c1ccccc1C(=O)NCCCN(C)CCCNC(=O)c1ccccc1C(=O)OC(C)(C=C)CCC=C(C)C (racemic) [Example 5b, (±)-bis(1,5-dimethyl-1-vinyl-4-hexenyl) 2,2′-(6-methyl-1,11-dioxo-2,6,10-triazaundecane-1,11-diyl)dibenzoate]

Amount of cyclized precursor ([1]; pH 7.62, 22.4 h): 69% | Hydrolysis followed by UV absorption spectra [2]: verified
Compound: CN(CCCNC(=O)c1ccccc1C(=O)OC(C)(C)Cc1ccccc1)CCCNC(=O)c1ccccc1C(=O)OC(C)(C)Cc1ccccc1 [Example 3b, bis(1,1-dimethyl-2-phenylethyl) 2,2′-(6-methyl-1,11-dioxo-2,6,10-triazaundecane-1,11-diyl)dibenzoate]

Amount of cyclized precursor ([1]; pH 10.47, 3.0 h): 98%
Compound: CC(C)(Cc1ccccc1)OC(=O)c1ccccc1C(=O)NCCCCCCCNC(=O)c1ccccc1C(=O)OC(C)(C)Cc1ccccc1 [Example 4, bis(1,1-dimethyl-2-phenylethyl) 2,2′-(1,11-dioxo-2,10-diazaundecane-1,11-diyl)dibenzoate]

Source: patent US20040048754A1, “Compounds for a controlled release of active compounds” (priority 2001, published 2004)
